Reference: US8148097B2, “Screening method for identification of compounds with calcium-independent phospholipase A2β (iPLA2β) modulating activity” (Washington University, priority 2005, dated 2012)

Assays:
[1] = biological target: T1, iPLA2β (Cricetulus griseus, UniProt A0A3L7I2I8); test: Covalent acylation (autoacylation) of iPLA2β with [14C]-long chain acyl-CoAs; format: biochemical; conditions: for effect of pretreatment on radiolabeling of iPLA2β with [1-14C]-oleoyl-CoA: 5 mM, 5 min at 30° C. pretreatment, FIG. 7
T1 construct: (His)6; made in house; host or cells: Sf9 insect cells (baculovirus)
T1 sequence (A0A3L7I2I8 1-752 isoform A0A3L7I2I8-2): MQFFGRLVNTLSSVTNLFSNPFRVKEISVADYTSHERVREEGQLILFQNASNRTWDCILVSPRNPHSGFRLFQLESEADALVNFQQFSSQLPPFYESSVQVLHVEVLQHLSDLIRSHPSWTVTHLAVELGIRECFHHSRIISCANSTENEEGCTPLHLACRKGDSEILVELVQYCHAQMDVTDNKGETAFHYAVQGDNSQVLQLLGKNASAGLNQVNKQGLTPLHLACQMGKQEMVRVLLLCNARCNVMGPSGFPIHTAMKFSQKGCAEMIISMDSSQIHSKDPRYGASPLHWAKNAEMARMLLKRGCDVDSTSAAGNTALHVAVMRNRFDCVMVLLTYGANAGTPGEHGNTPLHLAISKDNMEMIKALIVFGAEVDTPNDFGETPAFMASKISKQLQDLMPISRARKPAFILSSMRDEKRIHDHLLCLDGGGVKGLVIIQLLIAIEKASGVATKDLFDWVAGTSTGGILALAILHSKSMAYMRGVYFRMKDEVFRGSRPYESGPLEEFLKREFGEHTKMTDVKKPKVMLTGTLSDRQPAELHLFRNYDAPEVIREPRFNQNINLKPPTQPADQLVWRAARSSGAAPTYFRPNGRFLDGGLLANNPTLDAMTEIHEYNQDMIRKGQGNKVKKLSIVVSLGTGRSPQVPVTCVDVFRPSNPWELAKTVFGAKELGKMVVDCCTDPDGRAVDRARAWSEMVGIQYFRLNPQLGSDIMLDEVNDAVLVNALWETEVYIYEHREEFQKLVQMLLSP
Experimental: FIG. 5—Equivalent amounts of the indicated [1-^14C]-acyl-CoA guests (5 mol %) were incorporated into host POPC (100 μM) vesicles and incubated for 1 hr at 37° C. with equal amounts of either wild-type (WT) iPLA2β(His)6 (peptide disclosed as SEQ ID NO: 4), S465A iPLA2β(His)6 (peptide disclosed as SEQ ID NO: 4), or BEL-pretreated WT iPLA2β(His)6 (peptide disclosed as SEQ ID NO: 4) enzyme as described in Experimental Procedures. Samples were resolved by SDS-PAGE (10% gel), fixed, and dried before visualization by autoradiography.
FIG. 6—Purified iPLA2β(His)6 (peptide disclosed as SEQ ID NO: 4) (2 μM) was incubated with the indicated concentrations of [1-^14C]-oleoyl-CoA present as guest in host POPC (100 μM) vesicles for 1 hr at 37° C. Samples were electrophoresed in parallel with standard amounts (0.5-10 nCi) of [^14C]-BSA of known activity (not shown). The fixed and dried gel was exposed to film and the resultant signals from the [^14C]-BSA were utilized to generate a standard curve utilizing ID software from a Kodak Imagestation to determine the incorporation of [1-^14C]-oleate into iPLA2β.
FIG. 7—Purified iPLA2β(His)6 (peptide disclosed as SEQ ID NO: 4) was incubated with [1-^14C]-oleoyl CoA (10 mol %) incorporated as guest in host POPC vesicles. N-ethylmaleimide and iodoacetamide samples were pretreated with 5 mM of either reagent for 5 min at 30° C. before addition of [1-^14C]-oleoyl-CoA. Samples were incubated with 1 N HCl, 1 N NaOH, or 2 N neutral hydroxylamine for 1 hr at 30° C. as indicated. All samples, except lane 1, were precipitated with CHCl3/MeOH and washed with 70% acetone before SDS-PAGE and autoradiography as described in Experimental Procedures.
FIG. 10—Purified iPLA2β(His)6 (peptide disclosed as SEQ ID NO: 4) was incubated with [1-^14C]-oleoyl CoA (10 mol %) incorporated as guest in host POPC vesicles in the presence of EGTA (5 mM), Ca^2+ (1 mM), CaM (3 μg), or Ca^2+-CaM for 1 h at 37° C. Samples were resolved by SDS-PAGE and the gel was soaked in Amplify fluorographic reagent, dried, and exposed to film as described in Experimental Procedures.
Covalent Modification of […] with [^14C]-long chain Acyl CoAs—Purified recombinant iPLA2β(His)6 (peptide disclosed as SEQ ID NO: 4) was incubated with POPC vesicles containing 10 mol % [1-^14C]-acyl-CoA for 1 h at 37° C. […] Chloroform/methanol precipitation of some samples was performed as described (66) utilizing 15 μg of bovine serum albumin as carrier. In tests to examine the nature of the covalent linkage between oleic acid and iPLA2β, acid (HCl), base (NaOH), and hydroxylamine were added to the indicated concentrations and the samples were incubated at 30° C. for 1 h. Bovine serum albumin (15 μg) and SDS-PAGE loading buffer were then added to each sample prior to dialysis against 50 mM Tris-HCl, pH 6.8 containing 10% glycerol and 1% SDS for 4 h. Samples were electrophoresed by SDS-PAGE, fixed (40% methanol containing 10% acetic acid), stained with Coomassie Blue R-250, incubated in Amplify fluorographic reagent, dried, and exposed to Kodak Biomax MR film for 2-5 days at −80° C.

[2] = biological target: T1, iPLA2β; test: Cardiolipin and phospholipid hydrolysis catalyzed by iPLA2β and inhibition by BEL; format: biochemical; conditions: iPLA2b + BEL 10 μM, 20 min 37° C.
Experimental: (§1) Purified calcium-independent phospholipase A2 (iPLA2β) and calcium-independent phospholipase A2γ were incubated with vesicles containing 10% cardiolipin (tetra 18:1) for 20 min at 37° C.

[3] = biological target: T2, iPLA2γ (Homo sapiens, UniProt Q9NP80); conditions: racemic BEL, previous work; read-out: IC50, iPLA2γ phospholipase A2 activity; cited from earlier work
T2 sequence (Q9NP80 1-782): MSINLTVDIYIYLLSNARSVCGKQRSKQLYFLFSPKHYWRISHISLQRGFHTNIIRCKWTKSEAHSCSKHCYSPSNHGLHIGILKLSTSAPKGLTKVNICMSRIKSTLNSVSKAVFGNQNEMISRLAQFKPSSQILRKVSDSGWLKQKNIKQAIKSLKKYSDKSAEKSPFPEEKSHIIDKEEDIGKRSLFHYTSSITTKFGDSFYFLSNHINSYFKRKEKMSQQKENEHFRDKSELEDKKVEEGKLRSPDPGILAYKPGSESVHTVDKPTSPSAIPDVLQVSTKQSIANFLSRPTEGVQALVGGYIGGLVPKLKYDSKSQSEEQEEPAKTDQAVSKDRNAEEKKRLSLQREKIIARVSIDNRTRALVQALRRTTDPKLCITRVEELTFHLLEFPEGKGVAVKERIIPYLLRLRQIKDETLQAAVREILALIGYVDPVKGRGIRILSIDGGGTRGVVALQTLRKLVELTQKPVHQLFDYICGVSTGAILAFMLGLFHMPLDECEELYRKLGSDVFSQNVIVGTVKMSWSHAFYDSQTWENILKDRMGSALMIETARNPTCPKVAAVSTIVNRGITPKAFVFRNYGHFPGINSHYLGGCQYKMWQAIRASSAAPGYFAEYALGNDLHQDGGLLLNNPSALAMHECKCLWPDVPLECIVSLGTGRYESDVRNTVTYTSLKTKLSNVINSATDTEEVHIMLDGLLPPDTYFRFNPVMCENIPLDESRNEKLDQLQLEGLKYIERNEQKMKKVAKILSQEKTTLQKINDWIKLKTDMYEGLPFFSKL

[4] = biological target: T2, iPLA2γ; test: Cardiolipin and phospholipid hydrolysis catalyzed by iPLA2γ and inhibition by BEL; format: biochemical; conditions: iPLA2g + BEL 10 μM, 20 min 37° C.
Experimental: as §1

[5] = biological target: T1, iPLA2β; test: iPLA2β palmitoyl-CoA thioesterase (hydrolase) activity, palmitoyl-CoA guest in host vesicles; format: biochemical; conditions: pre-incubated with purified iPLA2β(His)6; palmitoyl-CoA guest in POPC/DOPS host bilayers; read-out: IC50, iPLA2β palm-CoA hydrolase activity
Experimental: The enzyme was then added to 100 mM Tris-HCl, pH 7.2 containing 1 mM EGTA and [1-^14C]-palmitoyl-CoA guest (5 mol %) in POPC (100 μM) host vesicles for 2 min at 37° C. Following extraction into butanol, liberated [1-^14C]-palmitic acid was separated from [1-^14C]-palmitoyl-CoA by TLC and quantified by liquid scintillation spectrometry as described in Experimental Procedures.
FIG. 9—Calcium-independent iPLA2β was pre-incubated in the presence of Ca^2+ (1 mM) or Ca^2+-CaM (3 μg) on ice before addition to 95 μM POPC containing either 5 mol % [1-^14C]-POPC or [1-^14C]-palmitoyl-CoA in 100 mM Tris-HCl, pH 7.2. After incubation at 37° C. for 3 min, reactions were terminated by vortexing in the presence of butanol and released radiolabeled fatty acids were resolved by TLC and quantitated by liquid scintillation spectrometry as described in Experimental Procedures.
Phospholipase A2 and Acyl-CoA Hydrolase Enzymatic Assays—Purified recombinant iPLA2β(His)6 (peptide disclosed as SEQ ID NO: 4) (0.1-1 μg) was incubated with radiolabeled phospholipid or acyl-CoA in 25 mM Tris-HCl, pH 7.2 containing 1 mM EGTA (200 μl final volume) for 1-2 mm at 37° C. […] Incorporation of acyl-CoA into the POPC/DOPS vesicles employed was determined as described previously (64). […]

[6] = biological target: T1, iPLA2β; test: iPLA2β-catalyzed acyl-CoA hydrolysis (substrate rate and selectivity); format: biochemical
Experimental: Reactions were terminated by vortexing with butanol and [1-^14C]-palmitic acid extracted into the butanol layer was resolved by TLC and quantified by liquid scintillation spectrometry as described in Experimental Procedures. B, iPLA2β catalyzed hydrolysis of palmitoyl-CoA guest in host POPC/DOPS vesicles. The indicated mol % of [^14C]-palmitoyl-CoA were incorporated into POPC/DOPS (90:10) vesicles (100 μM final vesicle lipid concentration). Each data point represents the average±S.E. for at least 4 separate determinations.
Released [1-^14C]-fatty acid was extracted into butanol by vortexing, resolved by TLC, and quantified by liquid scintillation spectrometry as described in Experimental Procedures. Each data point represents the average ±SE. from 8 separate determinations.
In tests using acyl-CoAs as guests in host phospholipid bilayers, radiolabeled acyl-CoAs were incorporated into POPC/DOPS (90:10 mol %) vesicles before addition to the reaction mix. […] Incorporation of acyl-CoA into the POPC/DOPS vesicles employed was determined as described previously (64). Reactions were terminated by extraction of the released radiolabeled fatty acids into 100 μl butanol, separation of fatty acids from unreacted substrate by thin layer chromatography, and quantitation by scintillation spectroscopy as previous described (65). […]

[7] = PAPC vesicles with 10 mol % tetra-18:1 CL

## O=C1O/C(=C/Br)CCC1c1cccc2ccccc12 (racemic) [BEL, (E)-6-(bromomethylene)-3-(1-naphthalenyl)-2H-tetrahydropyran-2-one]
[1]; BEL-pretreated iPLA2β, FIG. 5
  effect of BEL pretreatment on iPLA2β acylation with palmitoyl-CoA and stearoyl-CoA: marked increases in acylation
[2]
  16:0 FA: 0.96 nmol/reaction
  18:1 FA: 0.61 nmol/reaction
  20:4 FA: 0.50 nmol/reaction
  Di-18:1 LysoCL: 0.15 nmol/reaction
  Tri-18:1 LysoCL: 0.10 nmol/reaction
[2]; [7]
  Tetra-18:1 CL: 1.95 nmol/reaction
[3]
  IC50: ~3000 nM
[4]
  16:0 FA: 3.07 nmol/reaction
  18:1 FA: 0.54 nmol/reaction
  20:4 FA: 0.54 nmol/reaction
  Di-18:1 LysoCL: 0.12 nmol/reaction
  Tri-18:1 LysoCL: 0.14 nmol/reaction
[4]; [7]
  Tetra-18:1 CL: 2.18 nmol/reaction

## O=C1O/C(=C/Br)CC[C@@H]1c1cccc2ccccc12 [(R)-BEL]
[5]
  IC50: 800 nM

## O=C1O/C(=C/Br)CC[C@H]1c1cccc2ccccc12 [(S)-BEL]
[5]
  IC50: ~100 nM

## CC(C)(COP(=O)(O)OP(=O)(O)OC[C@H]1O[C@@H](n2cnc3c(N)ncnc32)[C@H](O)[C@@H]1OP(=O)(O)O)[C@@H](O)C(=O)NCCC(=O)NCCS [CoASH]
[6]
  inhibition of iPLA2β by high concentrations of CoASH: not inhibited

## CCN1C(=O)C=CC1=O [N-ethylmaleimide]
[1]
  effect of pretreatment on radiolabeling of iPLA2β with [1-14C]-oleoyl-CoA: decreased radiolabeling

## CCCCC/C=C\C/C=C\C/C=C\C/C=C\CCC[14C](=O)SCCNC(=O)CCNC(=O)[C@H](O)C(C)(C)COP(=O)(O)OP(=O)(O)OC[C@H]1O[C@@H](n2cnc3c(N)ncnc32)[C@H](O)[C@@H]1OP(=O)(O)O [[1-^14C]-arachidonoyl-CoA]
[1]; wild-type iPLA2β, FIG. 5
  signal intensity of iPLA2β acylation, fold less than with [1-14C]-oleoyl-CoA: ≈ 25 fold

## NC(=O)CI [iodoacetamide]
[1]
  effect of pretreatment on radiolabeling of iPLA2β with [1-14C]-oleoyl-CoA: decreased radiolabeling

## CCCCCCCCCCCCCCCC(=O)SCCNC(=O)CCNC(=O)[C@H](O)C(C)(C)COP(=O)(O)OP(=O)(O)OC[C@H]1O[C@@H](n2cnc3c(N)ncnc32)[C@H](O)[C@@H]1OP(=O)(O)O [palmitoyl-CoA]
[6]; at 2.5 μM palmitoyl-CoA, FIG. 1A
  maximal rate of palmitoyl-CoA thioesterase activity catalyzed by iPLA2β: ≈ 250 nmol palmitic acid×min^−1×mg^−1 protein
